Patent US5492839A (priority 1994, dated 1996)
Where two headings read alike, the source gives them in different places.

Columns and labels:
[1] = target: T1, skeletal muscle ryanodine receptor (Oryctolagus cuniculus, UniProt P11716); assay: [3H]Ryanodine competition binding to rabbit skeletal muscle triads
T1 construct: Rabbit skeletal muscle triads were prepared as previously described; from tissue; host or cells: rabbit skeletal muscle triads
Method: Rabbit skeletal muscle triads were prepared as previously described (Sharp et al., J. Biol. Chem. 262: 12309-12315 (1987)). […]

[2] = target: anti-ryanodine antibodies; assay: Competitive radioimmunoassay: inhibition of [3H]ryanodine-antibody binding (dextran-coated charcoal assay); parameters: species or system rabbit; settings: for binds times less tightly than ryanodine (antibody): relative to ryanodine
Method: Binding was performed in triplicate in 1.5 ml polypropylene tubes. […] Following the addition of serial dilutions of antibody, the tubes were shaken and incubated for 1 h at room temperature. The tubes were placed on ice for 10 min and then 0.2 ml of stirred, ice-cold dextran-coated charcoal (0.0625% Dextran T-70, 0.625% Norit A charcoal in TSG) was added to each tube. The tubes were shaken and incubated for an additional 10 min on ice. […] Controls without antiserum were included to determine the amount of radiolabel that could not be precipitated by the charcoal.
Ryanodine derivatives were prepared by serial dilution in TSG.

[3] = target: T1, skeletal muscle ryanodine receptor; assay: Photoaffinity labeling of skeletal muscle triads with [3H]ABRy; type: binding, rabbit
Method: Since [^3 H]ABRy contains a photoactivatable azido group, this compound was used to covalently label skeletal muscle triads following equilibrium binding. […] The membranes were then pelleted at 400,000×g for 15 min and resuspended in 1 ml of the binding buffer with 5 mM glutathione. The samples were placed in a plastic petri dish at 4° C. and were exposed to UV light (365 nm) at a distance of 1 cm for 45 min. The membranes were then centrifuged in a microfuge at maximum speed for 15 min. at 4° C. The pellets were resuspended in Laemmli sample buffer.
The proteins were then analyzed by SDS-PAGE (3-12% gradient gels) using the buffer system of Laemmli (Nature 227, 680-685 (1970)). Gels were stained with Coomassie blue or transferred to nitrocellulose for immunoblot analysis as previously described (Witcher et al., Science 261, 486-489 (1993)). […] Gels used for fluorography were first stained with Coomassie blue, destained, soaked in Enlightning (DuPont), and dried under vacuum. The dried gels were then exposed to Kodak XAR-5 film at -80° C. The fluorograms were also analyzed densitometrically using a Molecular Dynamics Model 300A scanning densitometer.

[4] = target: T2, brain ryanodine receptor (brain membranes) (Oryctolagus cuniculus, UniProt P30957); assay: [3H]Ryanodine competition binding to brain membranes; parameters: species or system rabbit
T2 construct: Crude rabbit brain membranes were purified as previously described; from tissue; host or cells: crude rabbit brain membranes (microsomes)
From the text: (§1) Canine cardiac junctional SR vesicles were isolated as described previously (Witcher et al., J. Biol. Chem. 266, 1114-11152 (1991)). Crude rabbit brain membranes were purified as previously described (Witcher et al., J. Biol. Chem. 267, 4963-4967 (1992)).

[5] = target: T3, cardiac ryanodine receptor (cardiac membranes) (Canis lupus familiaris, UniProt A0A8I3MT21); assay: [3H]Ryanodine competition binding to cardiac membranes; parameters: species or system canine
T3 construct: Canine cardiac junctional SR vesicles were isolated as described previously; from tissue; host or cells: canine cardiac junctional SR vesicles / cardiac microsomes
From the text: as §1

[6] = IC50 for binding to the ryanodine receptor, rabbit skeletal membranes, from FIG. 5, unit inferred
[7] = 1 nM [3H]ryanodine, 1:8,000 dilution of anti-ryanodine antibody, read-out: Inhibition of [^3 H] ryanodine-antibody binding, IC50
[8] = from FIG. 5, unit inferred, read-out: IC50 for binding to anti-ryanodine antibodies

T1 sequence (P11716 whole entry): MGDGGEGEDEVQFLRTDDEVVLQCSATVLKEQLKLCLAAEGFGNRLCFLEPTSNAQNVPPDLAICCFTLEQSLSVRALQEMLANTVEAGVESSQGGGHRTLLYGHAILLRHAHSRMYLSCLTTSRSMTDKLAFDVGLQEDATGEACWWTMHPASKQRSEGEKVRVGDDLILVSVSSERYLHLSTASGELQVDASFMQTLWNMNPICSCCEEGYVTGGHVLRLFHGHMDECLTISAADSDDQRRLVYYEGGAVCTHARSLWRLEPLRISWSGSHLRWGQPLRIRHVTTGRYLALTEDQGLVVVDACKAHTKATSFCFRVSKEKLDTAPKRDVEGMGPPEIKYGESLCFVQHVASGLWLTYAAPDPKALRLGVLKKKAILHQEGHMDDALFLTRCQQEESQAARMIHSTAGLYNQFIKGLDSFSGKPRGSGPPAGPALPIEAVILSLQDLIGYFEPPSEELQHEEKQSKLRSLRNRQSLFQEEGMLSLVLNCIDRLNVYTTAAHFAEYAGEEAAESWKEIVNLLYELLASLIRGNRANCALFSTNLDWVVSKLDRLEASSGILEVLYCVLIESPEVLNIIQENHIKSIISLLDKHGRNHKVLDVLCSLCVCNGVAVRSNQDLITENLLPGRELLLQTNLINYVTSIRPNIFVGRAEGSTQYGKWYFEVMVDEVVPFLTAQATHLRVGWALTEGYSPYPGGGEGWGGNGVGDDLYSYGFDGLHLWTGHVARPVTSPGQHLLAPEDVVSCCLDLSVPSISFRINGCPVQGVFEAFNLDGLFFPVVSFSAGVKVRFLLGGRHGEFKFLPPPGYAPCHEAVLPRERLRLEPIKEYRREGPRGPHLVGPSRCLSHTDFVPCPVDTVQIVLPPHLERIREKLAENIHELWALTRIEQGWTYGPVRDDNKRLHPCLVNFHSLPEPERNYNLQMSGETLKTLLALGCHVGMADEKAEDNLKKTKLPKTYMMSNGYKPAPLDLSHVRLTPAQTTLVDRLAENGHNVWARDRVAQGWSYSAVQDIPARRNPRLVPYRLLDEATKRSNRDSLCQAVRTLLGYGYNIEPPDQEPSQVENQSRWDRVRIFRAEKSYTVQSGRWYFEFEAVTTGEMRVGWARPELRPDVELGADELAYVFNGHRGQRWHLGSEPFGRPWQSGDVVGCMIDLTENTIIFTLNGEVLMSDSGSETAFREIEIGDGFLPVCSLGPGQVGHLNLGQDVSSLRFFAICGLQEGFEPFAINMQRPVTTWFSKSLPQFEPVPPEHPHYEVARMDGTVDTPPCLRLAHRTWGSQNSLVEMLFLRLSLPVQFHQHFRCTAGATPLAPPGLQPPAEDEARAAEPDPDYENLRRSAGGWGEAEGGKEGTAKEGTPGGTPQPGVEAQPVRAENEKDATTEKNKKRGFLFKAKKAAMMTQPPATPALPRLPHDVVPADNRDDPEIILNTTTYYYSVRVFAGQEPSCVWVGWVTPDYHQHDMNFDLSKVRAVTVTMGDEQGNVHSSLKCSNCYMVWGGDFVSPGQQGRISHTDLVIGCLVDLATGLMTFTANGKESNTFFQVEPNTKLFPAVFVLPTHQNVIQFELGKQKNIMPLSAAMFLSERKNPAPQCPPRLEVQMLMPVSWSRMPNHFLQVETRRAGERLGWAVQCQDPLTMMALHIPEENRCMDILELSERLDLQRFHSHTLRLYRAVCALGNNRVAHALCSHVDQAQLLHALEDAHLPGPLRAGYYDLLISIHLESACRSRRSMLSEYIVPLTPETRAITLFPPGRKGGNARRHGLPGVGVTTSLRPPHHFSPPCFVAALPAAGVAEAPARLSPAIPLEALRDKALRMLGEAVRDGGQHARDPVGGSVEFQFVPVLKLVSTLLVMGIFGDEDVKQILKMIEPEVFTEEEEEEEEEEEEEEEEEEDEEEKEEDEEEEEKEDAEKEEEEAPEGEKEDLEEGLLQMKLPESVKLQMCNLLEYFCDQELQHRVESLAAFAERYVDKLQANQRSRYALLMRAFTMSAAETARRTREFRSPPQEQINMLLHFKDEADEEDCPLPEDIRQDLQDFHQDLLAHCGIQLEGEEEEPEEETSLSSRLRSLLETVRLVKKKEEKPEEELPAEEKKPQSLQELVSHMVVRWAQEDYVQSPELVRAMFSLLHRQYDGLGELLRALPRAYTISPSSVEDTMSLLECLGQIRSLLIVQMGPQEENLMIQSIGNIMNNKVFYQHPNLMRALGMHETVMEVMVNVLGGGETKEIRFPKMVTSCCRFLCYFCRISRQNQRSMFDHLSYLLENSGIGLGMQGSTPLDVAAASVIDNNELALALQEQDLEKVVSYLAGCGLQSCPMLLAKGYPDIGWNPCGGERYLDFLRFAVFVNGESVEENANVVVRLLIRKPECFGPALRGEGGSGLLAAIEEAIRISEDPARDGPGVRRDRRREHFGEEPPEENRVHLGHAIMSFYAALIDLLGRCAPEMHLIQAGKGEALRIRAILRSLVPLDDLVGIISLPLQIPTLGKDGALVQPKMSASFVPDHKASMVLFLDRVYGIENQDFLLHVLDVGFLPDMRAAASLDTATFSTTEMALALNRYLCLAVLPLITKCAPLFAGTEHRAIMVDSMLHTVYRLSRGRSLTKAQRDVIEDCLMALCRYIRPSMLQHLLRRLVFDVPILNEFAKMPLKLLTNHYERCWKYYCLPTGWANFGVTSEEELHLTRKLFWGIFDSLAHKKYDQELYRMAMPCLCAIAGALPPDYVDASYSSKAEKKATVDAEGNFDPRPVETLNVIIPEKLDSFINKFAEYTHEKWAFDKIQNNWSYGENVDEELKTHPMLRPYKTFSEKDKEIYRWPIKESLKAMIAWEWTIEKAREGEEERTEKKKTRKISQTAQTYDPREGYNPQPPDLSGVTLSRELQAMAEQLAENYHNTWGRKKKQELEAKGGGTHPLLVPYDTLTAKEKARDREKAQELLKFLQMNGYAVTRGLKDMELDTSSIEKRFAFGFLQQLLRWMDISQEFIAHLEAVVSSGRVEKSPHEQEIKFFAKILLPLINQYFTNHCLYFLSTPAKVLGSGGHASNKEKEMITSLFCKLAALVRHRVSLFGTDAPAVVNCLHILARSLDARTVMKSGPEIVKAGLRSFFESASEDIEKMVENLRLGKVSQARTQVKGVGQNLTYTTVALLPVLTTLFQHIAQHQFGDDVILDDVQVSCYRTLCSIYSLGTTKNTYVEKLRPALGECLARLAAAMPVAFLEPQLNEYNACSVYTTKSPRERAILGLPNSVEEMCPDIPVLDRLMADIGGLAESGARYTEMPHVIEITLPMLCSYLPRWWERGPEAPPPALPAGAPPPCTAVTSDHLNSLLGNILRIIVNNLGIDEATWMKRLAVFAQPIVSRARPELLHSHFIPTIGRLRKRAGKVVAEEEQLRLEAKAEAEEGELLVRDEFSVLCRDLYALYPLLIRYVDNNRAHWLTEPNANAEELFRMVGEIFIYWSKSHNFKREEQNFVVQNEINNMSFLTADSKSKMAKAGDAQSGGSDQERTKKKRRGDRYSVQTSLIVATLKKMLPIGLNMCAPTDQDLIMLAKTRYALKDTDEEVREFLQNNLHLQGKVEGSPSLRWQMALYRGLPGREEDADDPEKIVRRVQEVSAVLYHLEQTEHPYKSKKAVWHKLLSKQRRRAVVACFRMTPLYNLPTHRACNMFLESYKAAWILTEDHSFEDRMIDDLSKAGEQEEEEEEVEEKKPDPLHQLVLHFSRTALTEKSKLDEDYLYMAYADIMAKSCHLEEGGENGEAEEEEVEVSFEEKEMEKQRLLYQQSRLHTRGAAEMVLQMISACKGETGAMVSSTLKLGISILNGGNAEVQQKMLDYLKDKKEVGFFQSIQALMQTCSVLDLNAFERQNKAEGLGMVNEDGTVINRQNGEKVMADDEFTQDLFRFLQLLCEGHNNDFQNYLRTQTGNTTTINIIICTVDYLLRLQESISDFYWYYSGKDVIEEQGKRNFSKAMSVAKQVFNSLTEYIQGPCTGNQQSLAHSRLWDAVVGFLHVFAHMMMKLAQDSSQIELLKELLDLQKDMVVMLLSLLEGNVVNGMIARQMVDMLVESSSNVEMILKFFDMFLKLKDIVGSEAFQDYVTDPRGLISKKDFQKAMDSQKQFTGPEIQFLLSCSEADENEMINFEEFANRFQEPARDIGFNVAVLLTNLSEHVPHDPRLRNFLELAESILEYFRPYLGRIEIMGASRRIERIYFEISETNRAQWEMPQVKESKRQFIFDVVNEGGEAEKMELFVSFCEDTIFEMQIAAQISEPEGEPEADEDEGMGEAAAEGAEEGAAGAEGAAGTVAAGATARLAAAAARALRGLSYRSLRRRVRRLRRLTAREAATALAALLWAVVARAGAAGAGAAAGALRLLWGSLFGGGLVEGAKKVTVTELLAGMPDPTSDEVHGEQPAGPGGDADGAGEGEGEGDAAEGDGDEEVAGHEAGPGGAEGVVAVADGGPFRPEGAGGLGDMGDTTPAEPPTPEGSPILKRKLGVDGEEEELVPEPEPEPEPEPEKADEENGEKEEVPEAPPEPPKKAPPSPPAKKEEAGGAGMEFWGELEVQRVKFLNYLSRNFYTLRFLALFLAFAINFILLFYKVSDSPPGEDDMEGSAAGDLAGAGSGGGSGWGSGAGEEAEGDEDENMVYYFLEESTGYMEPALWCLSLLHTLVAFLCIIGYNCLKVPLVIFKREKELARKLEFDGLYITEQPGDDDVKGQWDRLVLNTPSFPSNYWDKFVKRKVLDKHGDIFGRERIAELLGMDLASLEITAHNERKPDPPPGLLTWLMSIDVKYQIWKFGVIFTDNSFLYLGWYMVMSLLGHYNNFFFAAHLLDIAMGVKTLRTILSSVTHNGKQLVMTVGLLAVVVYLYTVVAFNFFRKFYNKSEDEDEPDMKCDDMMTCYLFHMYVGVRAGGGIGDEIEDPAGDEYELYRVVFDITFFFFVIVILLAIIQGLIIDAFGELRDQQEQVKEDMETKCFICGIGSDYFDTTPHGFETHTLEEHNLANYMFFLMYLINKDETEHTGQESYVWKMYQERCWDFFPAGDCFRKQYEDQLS

| SMILES | IC50 [1, 6] [µM] | IC50 [2, 7] [µM] | IC50 [2, 8] [µM] | binds times less tightly than ryanodine (antibody) [2] | binding to ryanodine receptor / skeletal membranes compared with ryanodine [1] | binding to anti-ryanodine antibodies compared with ryanodine (words) [2] | binding to anti-ryanodine antibodies compared with ryanodine (words) ([2]; listed as compound 11) | binding to anti-ryanodine antibodies compared with ryanodine (words) ([2]; listed as compound 12) | Kd ([2]; method of Muller, read-out: average antibody apparent dissociation constant (Kd) for the [3H]ryanodine-antibody complex) [µM] | IC50 ([1]; half-maximal inhibition of [3H]ryanodine binding to triads, skeletal muscle triads, 1 nM [3H]ryanodine, 1 hr at 37° C.) [µM] | proteins bound (specificity, words) [3] | binding to anti-ryanodine antibodies compared with ryanodine (words) ([2]; listed as compound 10) | IC50 [4] [µM] | IC50 [5] [µM] |
| --- | --- | --- | --- | --- | --- | --- | --- | --- | --- | --- | --- | --- | --- | --- |
| CC(C)C1(O)C(OC(=O)c2ccc[nH]2)C2(O)C3(C)CC4(O)OC5(C(O)C(CSCCCCO)CCC35O)C2(O)C41C (centres unmarked) [Compound 4, 21-(4-Hydroxybutylmercapto)-ryanodine] | < 1 | 0.025 | < 1 | about 10 times |  |  |  |  |  |  |  |  |  |  |
| CC1CCC2(O)C3(C)CC4(O)OC2(C1O)C1(O)C3(O)C(OC(=O)c2ccc[nH]2)C(O)(C(C)C)C41C (centres unmarked) [Ryanodine, reference compound] |  | 0.0016 | < 0.01 |  | highest affinity | highest affinity |  |  |  |  |  |  |  |  |
| CC1CCC2(O)C3(C)CC4(O)OC2(C1OC(=O)CCNC(=O)c1cc(N=[N+]=[N-])ccc1[N+](=O)[O-])C1(O)C3(O)C(OC(=O)c2ccc[nH]2)C(O)(C(C)C)C41C (centres unmarked) [Compound 11, 10-O-(3-[2-Nitro-5-azidobenzamido]-propionyl)-ryanodine] | < 0.1 | 0.0032 | < 0.1 |  | very nearly matched the affinity of native ryanodine | very nearly matched the affinity of native ryanodine | IC50 values similar to ryanodine |  |  |  |  |  |  |  |
| CC(C)C1(O)C(OC(=O)c2ccc[nH]2)C2(O)C3(C)CC4(O)OC5(C(O)C(CSCCOC(=O)C(=[N+]=[N-])C(F)(F)F)CCC35O)C2(O)C41C (centres unmarked) [Compound 7, 21-(2-[3,3,3-Trifluoro-2-diazopropionyloxy]-ethylmercapto)-ryanodine] | < 1 | 0.004 | < 1 |  |  | little effect on the IC50 |  |  |  |  |  |  |  |  |
| CC1CCC2(O)C3(C)CC4(O)OC2(C1OC(=O)CCNC(=O)c1ccc(C(=O)c2ccccc2)cc1)C1(O)C3(O)C(OC(=O)c2ccc[nH]2)C(O)(C(C)C)C41C (centres unmarked) [Compound 12, 10-O-(3-[4-benzoylbenzamido]-propionyl)-ryanodine] | < 0.1 | 0.006 | < 0.1 |  | very nearly matched the affinity of native ryanodine | very nearly matched the affinity of native ryanodine |  | IC50 values similar to ryanodine |  |  |  |  |  |  |
| CC1CCC2(O)C3(C)CC4(O)OC2(C1O)C1(O)C3(O)C(OC(=O)c2ccc[nH]2)C(O)(C(C)C)C41C (centres unmarked) [[^3 H]ryanodine, reference compound] |  |  |  |  |  |  |  |  | 0.001 |  |  |  |  |  |
| CC(C)C1(O)C(OC(=O)c2ccc[nH]2)C2(O)C3(C)CC4(O)OC5(C(O)C(CSCCCCOC(=O)c6ccc(N=[N+]=[N-])cc6)CCC35O)C2(O)C41C (centres unmarked) [Compound 6] | > 0.1 | 0.198 | > 0.1 | ~100 times | lowest affinity | lowest affinity |  |  |  |  |  |  |  |  |
| CC1CCC2(O)C3(C)CC4(O)OC2(C1OC(=O)CCNC(=O)c1ccc(N=[N+]=[N-])cc1)C1(O)C3(O)C(OC(=O)c2ccc[nH]2)C(O)(C(C)C)C41C (centres unmarked) [Compound 10, 10-O-(3-[4-Azidobenzamido]-propionyl)-ryanodine] | < 0.1 | 0.0032 | < 0.1 |  | very nearly matched the affinity of native ryanodine | very nearly matched the affinity of native ryanodine |  |  |  | ~0.037 | only is capable of binding to the 565 kDa ryanodine receptor/Ca^2+ release channel | IC50 values similar to ryanodine | 0.025 | 0.089 |
